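These data come from cells grown in 96-well plates and exposed to compound for 48 hours at five concentrations. Abbreviation: GI50, concentration required for 50% inhibition of growth. Definition used: TGI = concentration required for complete inhibition of growth.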
These compounds were tested on UACC-257 melanoma (assay: inhibition of tumour cell growth, NCI panel, 48 h).

Row | SMILES | TGI [µM] | GI50 [µM]
1 | CCOC(=O)C(Cl)(NC(=O)NC(Cl)(C(=O)OCC)C(F)(F)F)C(F)(F)F (stereo not drawn) | > 100 | 
2 | CSc1ccc(C2=NN(C(=O)c3ccc(F)cc3)C(c3ccc(F)cc3)C2)cc1 (stereo not drawn) | 28.3 | 14.7
3 | CC[C@H](NC(=O)[C@H](C)NC)C(=O)N1C[C@@H](O)C[C@H]1Cc1c(-c2[nH]c3cc(F)ccc3c2C[C@@H]2C[C@H](O)CN2C(=O)[C@H](CC)NC(=O)[C@H](C)NC)[nH]c2cc(F)ccc12 | > 100 | 0.0431
4 | Cc1ccccc1NC(=O)N/C(N)=N/c1nc(-c2cccc([N+](=O)[O-])c2)cs1 | > 100 | 4.85

The compounds below were run on PC-3 prostate (assay: inhibition of tumour cell growth, NCI panel, 48 h).

Row | SMILES | TGI [µM] | GI50 [µM]
5 | CCOC(=O)C(Cl)(NC(=O)NC(Cl)(C(=O)OCC)C(F)(F)F)C(F)(F)F (stereo not drawn) | > 100 | 
6 | CC(=O)N1C(=O)CC2(N=C(C)CC2=O)c2ccccc21 (stereo not drawn) | > 10 | 
7 | CSc1ccc(C2=NN(C(=O)c3ccc(F)cc3)C(c3ccc(F)cc3)C2)cc1 (stereo not drawn) | 22.2 | 6.43
8 | CC[C@H](NC(=O)[C@H](C)NC)C(=O)N1C[C@@H](O)C[C@H]1Cc1c(-c2[nH]c3cc(F)ccc3c2C[C@@H]2C[C@H](O)CN2C(=O)[C@H](CC)NC(=O)[C@H](C)NC)[nH]c2cc(F)ccc12 | > 100 | > 100
9 | Cc1ccccc1NC(=O)N/C(N)=N/c1nc(-c2cccc([N+](=O)[O-])c2)cs1 | > 100 | 2.66

These compounds were tested on SK-MEL-5 melanoma (assay: inhibition of tumour cell growth, NCI panel, 48 h).

Row | SMILES | TGI [µM] | GI50 [µM]
10 | CC(=O)N1C(=O)CC2(N=C(C)CC2=O)c2ccccc21 (stereo not drawn) | > 10 | 
11 | CSc1ccc(C2=NN(C(=O)c3ccc(F)cc3)C(c3ccc(F)cc3)C2)cc1 (stereo not drawn) | 33.3 | 18.5
12 | CC[C@H](NC(=O)[C@H](C)NC)C(=O)N1C[C@@H](O)C[C@H]1Cc1c(-c2[nH]c3cc(F)ccc3c2C[C@@H]2C[C@H](O)CN2C(=O)[C@H](CC)NC(=O)[C@H](C)NC)[nH]c2cc(F)ccc12 | > 53.8 | 26.2
13 | Cc1ccccc1NC(=O)N/C(N)=N/c1nc(-c2cccc([N+](=O)[O-])c2)cs1 | 5.15 | 1.88

What follows are compounds tested on NCI-H226 lung (assay: inhibition of tumour cell growth, NCI panel, 48 h).

Row | SMILES | TGI [µM] | GI50 [µM]
14 | CC(=O)N1C(=O)CC2(N=C(C)CC2=O)c2ccccc21 (stereo not drawn) | > 10 | 
15 | CSc1ccc(C2=NN(C(=O)c3ccc(F)cc3)C(c3ccc(F)cc3)C2)cc1 (stereo not drawn) | 34.3 | 13.4
16 | CC[C@H](NC(=O)[C@H](C)NC)C(=O)N1C[C@@H](O)C[C@H]1Cc1c(-c2[nH]c3cc(F)ccc3c2C[C@@H]2C[C@H](O)CN2C(=O)[C@H](CC)NC(=O)[C@H](C)NC)[nH]c2cc(F)ccc12 | > 100 | > 100
17 | Cc1ccccc1NC(=O)N/C(N)=N/c1nc(-c2cccc([N+](=O)[O-])c2)cs1 | 7.02 | 2.17

Each compound was assayed on BT-549 breast (assay: inhibition of tumour cell growth, NCI panel, 48 h).

Row | SMILES | GI50 [µM] | TGI [µM]
18 | CSc1ccc(C2=NN(C(=O)c3ccc(F)cc3)C(c3ccc(F)cc3)C2)cc1 (stereo not drawn) | 15.1 | 30
19 | CC[C@H](NC(=O)[C@H](C)NC)C(=O)N1C[C@@H](O)C[C@H]1Cc1c(-c2[nH]c3cc(F)ccc3c2C[C@@H]2C[C@H](O)CN2C(=O)[C@H](CC)NC(=O)[C@H](C)NC)[nH]c2cc(F)ccc12 | 0.569 | > 41.8
20 | Cc1ccccc1NC(=O)N/C(N)=N/c1nc(-c2cccc([N+](=O)[O-])c2)cs1 | 2.16 | 5.37

These compounds were tested on UO-31 renal (assay: inhibition of tumour cell growth, NCI panel, 48 h).

Row | SMILES | TGI [µM] | GI50 [µM]
21 | CCOC(=O)C(Cl)(NC(=O)NC(Cl)(C(=O)OCC)C(F)(F)F)C(F)(F)F (stereo not drawn) | > 100 | 
22 | CC(=O)N1C(=O)CC2(N=C(C)CC2=O)c2ccccc21 (stereo not drawn) | > 10 | 
23 | CSc1ccc(C2=NN(C(=O)c3ccc(F)cc3)C(c3ccc(F)cc3)C2)cc1 (stereo not drawn) | 25.1 | 12.6
24 | CC[C@H](NC(=O)[C@H](C)NC)C(=O)N1C[C@@H](O)C[C@H]1Cc1c(-c2[nH]c3cc(F)ccc3c2C[C@@H]2C[C@H](O)CN2C(=O)[C@H](CC)NC(=O)[C@H](C)NC)[nH]c2cc(F)ccc12 | > 100 | > 100
25 | Cc1ccccc1NC(=O)N/C(N)=N/c1nc(-c2cccc([N+](=O)[O-])c2)cs1 | 3.83 | 1.29

Each compound was assayed on CAKI-1 renal (assay: inhibition of tumour cell growth, NCI panel, 48 h).

Row | SMILES | TGI [µM] | GI50 [µM]
26 | CC(=O)N1C(=O)CC2(N=C(C)CC2=O)c2ccccc21 (stereo not drawn) | > 10 | 
27 | CSc1ccc(C2=NN(C(=O)c3ccc(F)cc3)C(c3ccc(F)cc3)C2)cc1 (stereo not drawn) | 37.5 | 16.6
28 | CC[C@H](NC(=O)[C@H](C)NC)C(=O)N1C[C@@H](O)C[C@H]1Cc1c(-c2[nH]c3cc(F)ccc3c2C[C@@H]2C[C@H](O)CN2C(=O)[C@H](CC)NC(=O)[C@H](C)NC)[nH]c2cc(F)ccc12 | > 100 | > 100
29 | Cc1ccccc1NC(=O)N/C(N)=N/c1nc(-c2cccc([N+](=O)[O-])c2)cs1 | 3.16 | 1.16

Each compound was assayed on OVCAR-4 ovarian (assay: inhibition of tumour cell growth, NCI panel, 48 h).

Row | SMILES | TGI [µM] | GI50 [µM]
30 | CC(=O)N1C(=O)CC2(N=C(C)CC2=O)c2ccccc21 (stereo not drawn) | > 10 | 
31 | CSc1ccc(C2=NN(C(=O)c3ccc(F)cc3)C(c3ccc(F)cc3)C2)cc1 (stereo not drawn) | 30.3 | 14.9
32 | CC[C@H](NC(=O)[C@H](C)NC)C(=O)N1C[C@@H](O)C[C@H]1Cc1c(-c2[nH]c3cc(F)ccc3c2C[C@@H]2C[C@H](O)CN2C(=O)[C@H](CC)NC(=O)[C@H](C)NC)[nH]c2cc(F)ccc12 |  | 0.0598
33 | Cc1ccccc1NC(=O)N/C(N)=N/c1nc(-c2cccc([N+](=O)[O-])c2)cs1 | > 100 | 3.53

Each compound was assayed on SF-268 CNS (assay: inhibition of tumour cell growth, NCI panel, 48 h).

Row | SMILES | TGI [µM] | GI50 [µM]
34 | CCOC(=O)C(Cl)(NC(=O)NC(Cl)(C(=O)OCC)C(F)(F)F)C(F)(F)F (stereo not drawn) | > 100 | 
35 | CC(=O)N1C(=O)CC2(N=C(C)CC2=O)c2ccccc21 (stereo not drawn) | > 10 | 
36 | CSc1ccc(C2=NN(C(=O)c3ccc(F)cc3)C(c3ccc(F)cc3)C2)cc1 (stereo not drawn) | 13.4 | 2.69
37 | CC[C@H](NC(=O)[C@H](C)NC)C(=O)N1C[C@@H](O)C[C@H]1Cc1c(-c2[nH]c3cc(F)ccc3c2C[C@@H]2C[C@H](O)CN2C(=O)[C@H](CC)NC(=O)[C@H](C)NC)[nH]c2cc(F)ccc12 | > 100 | > 100
38 | Cc1ccccc1NC(=O)N/C(N)=N/c1nc(-c2cccc([N+](=O)[O-])c2)cs1 | 8.88 | 2.67

These compounds were tested on OVCAR-8 ovarian (assay: inhibition of tumour cell growth, NCI panel, 48 h).

Row | SMILES | TGI [µM] | GI50 [µM]
39 | CC(=O)N1C(=O)CC2(N=C(C)CC2=O)c2ccccc21 (stereo not drawn) | > 10 | 
40 | CSc1ccc(C2=NN(C(=O)c3ccc(F)cc3)C(c3ccc(F)cc3)C2)cc1 (stereo not drawn) | 28.9 | 13.5
41 | CC[C@H](NC(=O)[C@H](C)NC)C(=O)N1C[C@@H](O)C[C@H]1Cc1c(-c2[nH]c3cc(F)ccc3c2C[C@@H]2C[C@H](O)CN2C(=O)[C@H](CC)NC(=O)[C@H](C)NC)[nH]c2cc(F)ccc12 | > 100 | 31.2
42 | Cc1ccccc1NC(=O)N/C(N)=N/c1nc(-c2cccc([N+](=O)[O-])c2)cs1 | 15.2 | 2.88

What follows are compounds tested on M14 melanoma (assay: inhibition of tumour cell growth, NCI panel, 48 h).

Row | SMILES | TGI [µM] | GI50 [µM]
43 | CC(=O)N1C(=O)CC2(N=C(C)CC2=O)c2ccccc21 (stereo not drawn) | > 10 | 
44 | CSc1ccc(C2=NN(C(=O)c3ccc(F)cc3)C(c3ccc(F)cc3)C2)cc1 (stereo not drawn) | 22.1 | 9.43
45 | CC[C@H](NC(=O)[C@H](C)NC)C(=O)N1C[C@@H](O)C[C@H]1Cc1c(-c2[nH]c3cc(F)ccc3c2C[C@@H]2C[C@H](O)CN2C(=O)[C@H](CC)NC(=O)[C@H](C)NC)[nH]c2cc(F)ccc12 | > 100 | > 100
46 | Cc1ccccc1NC(=O)N/C(N)=N/c1nc(-c2cccc([N+](=O)[O-])c2)cs1 | 19.6 | 2.15

The compounds below were run on MDA-MB-435 (assay: inhibition of tumour cell growth, NCI panel, 48 h).

Row | SMILES | TGI [µM] | GI50 [µM]
47 | CC(=O)N1C(=O)CC2(N=C(C)CC2=O)c2ccccc21 (stereo not drawn) | > 10 | 
48 | CSc1ccc(C2=NN(C(=O)c3ccc(F)cc3)C(c3ccc(F)cc3)C2)cc1 (stereo not drawn) | 26.8 | 10.6
49 | CC[C@H](NC(=O)[C@H](C)NC)C(=O)N1C[C@@H](O)C[C@H]1Cc1c(-c2[nH]c3cc(F)ccc3c2C[C@@H]2C[C@H](O)CN2C(=O)[C@H](CC)NC(=O)[C@H](C)NC)[nH]c2cc(F)ccc12 | > 100 | 
50 | Cc1ccccc1NC(=O)N/C(N)=N/c1nc(-c2cccc([N+](=O)[O-])c2)cs1 | 4.51 | 0.505

Each compound was assayed on A549 NSCLC (assay: inhibition of tumour cell growth, NCI panel, 48 h).

Row | SMILES | TGI [µM] | GI50 [µM]
51 | CC(=O)N1C(=O)CC2(N=C(C)CC2=O)c2ccccc21 (stereo not drawn) | > 10 | 
52 | CSc1ccc(C2=NN(C(=O)c3ccc(F)cc3)C(c3ccc(F)cc3)C2)cc1 (stereo not drawn) | 26.9 | 11.7
53 | CC[C@H](NC(=O)[C@H](C)NC)C(=O)N1C[C@@H](O)C[C@H]1Cc1c(-c2[nH]c3cc(F)ccc3c2C[C@@H]2C[C@H](O)CN2C(=O)[C@H](CC)NC(=O)[C@H](C)NC)[nH]c2cc(F)ccc12 | > 100 | > 100
54 | Cc1ccccc1NC(=O)N/C(N)=N/c1nc(-c2cccc([N+](=O)[O-])c2)cs1 | 6.98 | 2.39

These compounds were tested on LOX IMVI melanoma (assay: inhibition of tumour cell growth, NCI panel, 48 h).

Row | SMILES | TGI [µM] | GI50 [µM]
55 | CCOC(=O)C(Cl)(NC(=O)NC(Cl)(C(=O)OCC)C(F)(F)F)C(F)(F)F (stereo not drawn) | > 100 | 
56 | CSc1ccc(C2=NN(C(=O)c3ccc(F)cc3)C(c3ccc(F)cc3)C2)cc1 (stereo not drawn) | 12.3 | 3.62
57 | CC[C@H](NC(=O)[C@H](C)NC)C(=O)N1C[C@@H](O)C[C@H]1Cc1c(-c2[nH]c3cc(F)ccc3c2C[C@@H]2C[C@H](O)CN2C(=O)[C@H](CC)NC(=O)[C@H](C)NC)[nH]c2cc(F)ccc12 | > 100 | > 59.6
58 | Cc1ccccc1NC(=O)N/C(N)=N/c1nc(-c2cccc([N+](=O)[O-])c2)cs1 | 5.17 | 1.79

Each compound was assayed on RPMI-8226 leukemia (assay: inhibition of tumour cell growth, NCI panel, 48 h).

Row | SMILES | TGI [µM] | GI50 [µM]
59 | CCOC(=O)C(Cl)(NC(=O)NC(Cl)(C(=O)OCC)C(F)(F)F)C(F)(F)F (stereo not drawn) | > 100 | 
60 | CSc1ccc(C2=NN(C(=O)c3ccc(F)cc3)C(c3ccc(F)cc3)C2)cc1 (stereo not drawn) | 4.2 | 1.68
61 | CC[C@H](NC(=O)[C@H](C)NC)C(=O)N1C[C@@H](O)C[C@H]1Cc1c(-c2[nH]c3cc(F)ccc3c2C[C@@H]2C[C@H](O)CN2C(=O)[C@H](CC)NC(=O)[C@H](C)NC)[nH]c2cc(F)ccc12 | 98 | 12.8
